Reference: ChEMBL document CHEMBL1121753 (J Med Chem, 1981)

Tests used:
[1] = test system: ADJ/PC6; test: Compound was tested for dose producing 90% reduction in tumor weight, in ADJ/PC6 mouse plasma cell tumor
[2] = Compound was tested for dose required to kill 50 % of ADJ/PC6 mouse plasma cell tumor in a group
[3] = Therapeutic index as the ratio of LD50 to ED50 of the compound

Row | SMILES | ED90 [1] [mg/kg] | LD50 [2] [mg/kg] | selectivity ratio [3]
1 | [2H]C1([2H])CNP(=O)(N(CCCl)CCCl)OC1 (stereo unspecified) | 12 | 700 | 58
2 | O=P1(N(CCCl)CCCl)NCCCO1 (stereo unspecified) [CYCLOPHOSPHAMIDE ANHYDROUS] | 2.25 | 260 | 116
